This is an account of results in patent publication US6992215B2, “Thiol-based NAALADase inhibitors” (Guildford Pharmaceuticals Inc., priority 2001, dated 2006).

The test system of assay [1] is rats with unilateral elevation of intraocular pressure. As to the kind of experiment: Experimental rat glaucoma (IOP elevation, optic nerve fiber counting). Type of assay: in vivo. The following applies: for FIBER NUMBER / PERCENT DIFFERENCE (fiber number between glaucoma and normal eye): 10 mg/kg i.p. daily. How it is done:
(§1) All experiments complied with the Association for Research in Vision and Ophthalmology Statement for the Use of Animals in Ophthalmic and Vision Research. 82 male Brown Norway rats (Rattus norvegicus), each weighing approximately 250 gm, were treated using procedures approved by the Animal Care Committee of the Johns Hopkins University School of Medicine. The rats were housed with a 12 hour light/12 hour dark cycle and fed ad libitum.
EXPERIMENTAL GLAUCOMA: Unilateral elevation of intraocular pressure (“IOP”) was produced in 56 rats by microinjection of hypertonic saline into episcleral veins, following procedures described in Morrison, J. et al., IOVS (March 1998) 39:526–531. Beginning on the day of IOP elevation, the rats were treated daily with intraperitoneal injections of either a vehicle (23 rats with 50 mM HEPES-buffered saline) or a NAALADase inhibitor (11 rats with 10 mg/kg of Compound A and 22 rats with 10 mg/kg of Compound B). 11 saline treated rats, 11 Compound A treated rats and 11 Compound B treated rats were sacrificed at 8 weeks, and the remaining rats at 12 weeks, after initial IOP elevation.
(§2) OPTIC NERVE COUNTING: The rats were sacrificed by exsanguination under deep pentobarbital anesthesia. They were perfused through the heart with 2% paraformaldehyde/2% glutaraldehyde in 0.1 M phosphate buffer, pH 7.2, and the eyes with attached optic nerves were removed. A cross-section of the optic nerve from both experimental (glaucoma or transection) and control eyes was removed 1.5 mm posterior to the globe, 1 mm in thickness, and post-fixed in 2% osmium tetroxide in buffer. These were processed into epoxy resin, sectioned at 1 micron and stained with toluidine blue.
(§3) The area of the optic nerve cross-section was measured by outlining its outer border at 10× magnification on an image analysis system (Universal Imaging Corp., Westchester, Pa.) with Synsys digital camera and Metamorph software. Three area measurements were taken and the mean value was determined. To measure the density and fiber diameter distributions, images were captured with a 100× phase contrast objective from 10 different areas of each nerve. These were edited to eliminate non-neural objects and the size of each axon internal to the myelin sheath (its minimum diameter) and the density of axons/square mm were calculated for each image and nerve. The mean density was multiplied by total nerve area to yield fiber number for each nerve. The total fiber number in glaucoma or transection nerves was compared to the normal, fellow eye of each rat to yield a percent loss value. The number of axons counted among the 10 images was an approximately 20% sample of the 80–90,000 axons in normal rat nerves. The person measuring axon number was masked to the protocol conducted on the nerves.

Assay [2] deals with rats with unilaterally transected optic nerve. In words: Optic nerve transection (optic nerve fiber counting). Type of assay: in vivo, Rattus norvegicus. The following applies: for FIBER NUMBER / PERCENT DIFFERENCE (fiber number between transected eye and normal eye): 10 mg/kg i.p. daily. How it is done: as §1
OPTIC NERVE TRANSECTION: The optic nerve was transected unilaterally in 26 rats under intraperitoneal pentobarbital anesthesia. The conjunctiva was opened with scissors and the optic nerve exposed by traction on extraocular muscles. The transection was performed with microscissors 5 mm posterior to the globe, with specific attention to avoidance of injury to major ocular blood vessels. Immediately after transection, the retina was examined ophthalmoscopically to assure that the retinal arterial blood supply was not disrupted. The conjunctiva was closed with absorbable suture and the eye dressed with antibiotic ointment. Beginning on the day of transection, the rats were treated daily with intraperitoneal injections of either a vehicle (9 rats with 50 mM HEPES-buffered saline) or a NAALADase inhibitor (8 rats with 10 mg/kg of Compound A and 9 rats with 10 mg/kg of Compound B). 5 saline treated rats, 3 Compound A treated rats and 4 Compound B treated rats were sacrificed at 2 weeks, and the remaining rats at 4 weeks, after transection.
as §2, §3

For assay [3], the system named is transgenic HD mice of the N171–82Q strain. As to the kind of experiment: Huntington's disease transgenic mouse model, behavioral testing (rotarod, locomotion). The assay is classed as in vivo. To be noted: FIG. 42. How it is done: Transgenic HD mice of the […]-[…] strain and non-transgenic littermates were treated with NAALADase inhibitor Compound B (30 mg/kg) or a vehicle from 10 weeks of age. The mice were placed on a rotating rod (“rotarod”). The length of time at which the mouse fell off the rotarod was recorded as a measure of motor coordination. […] The treatment with Compound B had no effect on the rotarod performance of normal non-HD mice. The total distance traveled by the mice was also recorded as a measure of overall locomotion.
On the technique in general: The rotarod test checks motor coordination on a turning rod.

In assay [4] the test system is transgenic HD mice (N171–82Q). As to the kind of experiment: Huntington's disease transgenic mouse model, survival. The assay is classed as in vivo. How it is done: The effects of Compound B and vehicle on the survival of transgenic HD mice (N171–82Q) were evaluated. Thirteen mice (six male and seven female) were assigned to the Compound B treatment group, and fourteen mice (six male and eight female) were assigned to the vehicle treatment group. Treatment was continued until all the mice died.

Each structure is given as a SMILES string.

In the case of `O=C(O)CCC(CCCS)C(=O)O` (stereo not drawn) [Compound B, 2-(3-sulfanylpropyl)pentanedioic acid], the “FIBER NUMBER” value in assay [1] (8 week group) is given as 80785 ± 2121; in assay [1] (12 week group) it was 90504 ± 1718; in assay [2] (2 weeks survival) it was 19,550 ± 11,383; in assay [2] (4 weeks survival), 5,162 ± 5,017. Also, the “PERCENT DIFFERENCE (fiber number between glaucoma and normal eye)” value is −0.82 ± 2.97% in assay [1] (8 week group, positive value indicates fewer fibers in the glaucoma eye) and −3.21 ± 2.86% in assay [1] (12 week group). In addition, in assay [1] (at 8 weeks, p=0.05 for Compound A and p=0.02 for Compound B), the “mean percent fiber loss versus saline-treated control groups” value is “statistically less”. Further, in assay [2] (2 weeks after transection), the “remaining axons relative to the saline-treated rats” value is recorded as “twice”. For the same molecule, the “PERCENT DIFFERENCE (fiber number between transected eye and normal eye)” value is given as 75.3 ± 14.8% in assay [2] (2 weeks survival) and 93.4 ± 6.2% in assay [2] (4 weeks survival). The rotarod performance result in assay [3] (normal non-HD mice, 30 mg/kg) is “no effect”. The “rotarod performance (time on the rotarod) versus vehicle” value in assay [3] (transgenic HD mice, 30 mg/kg from 10 weeks of age) is reported as “stayed longer on the rotarod”. Further, the “survival time versus vehicle treated counterparts” value in assay [4] (female mice, p-value=0.03, FIG. 46) was “significantly prolonged survival time”. In addition, the “difference in median survival time versus vehicle treatment group” value in assay [4] (p-value=0.07) is “not statistically significant”. The molecule also gave a median survival time in assay [4] (transgenic HD mice, male and female, FIG. 44) of 184 days.
